In patent US20250228851A1, “ALLOSTERIC INHIBITOR COMPOUNDS FOR OVERCOMING CANCER RESISTANCE” (priority 2021, published 2025):
“Also recorded” adds a separate entry of the source.

Columns and labels:
[1] = tested on: Ba/F3 cells expressing T315I-p185-BCR-ABL; assay: XTT cell viability / proliferation, Ba/F3 expressing T315I-p185-BCR-ABL; format: cell-based, murine
Experimental: (§1) • 1. Ba/F3 cells were obtained from the German Collection of Microorganisms and Cell Cultures (DSMZ, Braunschweig, Germany) and maintained in RPMI 1640 medium supplemented with 10% fetal calf serum (Invitrogen) containing 10 ng/ml of interleukin-3 (Cell Concepts, Umkirch, Germany). Ecotropic Phoenix cells and Rat-1 cells were cultured in Dulbecco's modified Eagle's medium supplemented with 10% fetal calf serum. GNF-2 (Sigma-Adrich, Steinheim, Germany) was dissolved in dimethyl sulfoxide and added at a final concentration of […]. Cell growth was assessed by dye exclusion using Trypan blue. Proliferation was assessed using the XTT proliferation kit (Roche, Mannheim, Germany), according to the manufacturer's instructions. • 2. Ba/F3: IL-3 dependent lymphatic murine pro B cell line. Ba/F3 cells expressing either p185-BCR-ABL1 (p185-BCR-ABL-Ba/F3) or p210-BCR-ABL (p210-BCR-ABL-Ba/F3). p185-BCR-ABL1 (activated kinases substitute for the IL-3 signaling and therefore render the cells IL3 independent. Ba/F3 cells expressing either p185-BCR-ABL (p185-Ba/F3) or p210-BCR-ABL (p210-Ba/F3). Ba/F3 cells obtained from the German Collection of Microorganisms and Cell Cultures (DSMZ, Braunschweig, Germany). • 3. Mutant transduced Ba/F3 cells (T315I-p185-BCR-ABL1 or T315I-p210-BCR-ABL1): Ba/F3 cells expressing either the mutated forms T315I-p185-BCR-ABL1 or T315I-p210-BCR-ABL1. • 4. WT-Sup-B15: A Ph+ ALL cell line harboring the p185-BCR-ABL. Sup-B15: established from the bone marrow of a child with acute lymphoblastic leukemia (B cell precursor ALL) in second relapse in 1984; described in the literature to carry the ALL-variant (m-BCR) of the BCR-ABL1 fusion gene (e1-a2) correct, because it results in the p185-BCR-ABL version. • 5. […] V617FJAK2 HEL: (Human erythroleukemia) is a growth factor independent erythroleukemic cell line established from the bone marrow of a patient with relapsed Hodgkin disease after autologous bone marrow transplantation (Martin P & Papayannopoulou T: Science 1982; 216:1233-1235). HEL cells display a block in differentiation at the level of common erythroid-megakaryocytic progenitor and have been commonly used as a model to study erythroid and megakaryocytic differentiation. • 7. Jurkat: an immortalized human T lymphocyte first derived from the peripheral blood of a child suffering from T cell leukemia. Jurkat cells are used to study acute T cell leukemia, T cell signaling, and the expression of various chemokine receptors susceptible to viral entry, particularly HIV.
(§2) FIGS. 1A and 1B: Effects of Compound 16 on Ba/F3 cells expressing either p185-BCR-ABL or T315I-p185-BCR-ABL. Cells were exposed to increasing concentration of Compound 16 [empty vehicle (0.0 μM+IL3), 2.5, 5.0 and 10.0 μM]. […] Cell viability (CV) was assessed using the XTT method as described in the experimental part. The means±SD of triplicates from one representative experiment out of three performed are given.
(§3) FIGS. 7A-C: Effects of Compound 16 on of Ba/F3 cells expressing WT-p185-BCR-ABL (FIG. 7A) and the mutant gatekeeper T315I-p185-BCR-ABL (FIG. 7B) by Compound 16. Cells were exposed to increasing concentrations of Compound 16.

WT-Ba/F3 = assay: Proliferation by trypan blue exclusion, WT-Ba/F3; format: cell-based, murine; conditions: WT-Ba/F3, 1.0, 2.0 and 5.0 μM
Experimental: (§4) • 1. Ba/F3 cells were obtained from the German Collection of Microorganisms and Cell Cultures (DSMZ, Braunschweig, Germany) and maintained in RPMI 1640 medium supplemented with 10% fetal calf serum (Invitrogen) containing 10 ng/ml of interleukin-3 (Cell Concepts, Umkirch, Germany). Ecotropic Phoenix cells and Rat-1 cells were cultured in Dulbecco's modified Eagle's medium supplemented with 10% fetal calf serum. GNF-2 (Sigma-Adrich, Steinheim, Germany) was dissolved in dimethyl sulfoxide and added at a final concentration of […]. Cell growth was assessed by dye exclusion using Trypan blue. Proliferation was assessed using the XTT proliferation kit (Roche, Mannheim, Germany), according to the manufacturer's instructions. • 2. Ba/F3: IL-3 dependent lymphatic murine pro B cell line. […]
(§5) FIGS. 4A and 4B. […] All cell lines were treated with the indicated concentrations of Compound 16 for total period of five days and proliferation was determined by trypan blue exclusion of viable cells. […] For factor-independent growth, the number of viable cells was determined at day 3 by trypan blue dye exclusion.

KÖ (Ph+T315I-BCR-ABL) = assay: Proliferation by dye exclusion after three days, KÖ; format: cell-based, human; conditions: KÖ, 2.5, 5 and 10 μM
Experimental: FIG. 3. […] Cells were exposed to increasing concentration of 2.5, 5 and 10 μM of Compound 16. The negative control cell lines Ph− ALL HP was irresponsive to increasing concentration of Compound 16 (up to 10 μM). […] All four cell lines were plated in duplicates at the indicated concentrations, and proliferation was assessed after three days by dye exclusion of viable cells. […] The sensitivity of Ph+ cells to Compound 16 underlines the involvement of BCR-ABL in the antiproliferative mechanism. Death induction of BV173 cells is well taken as an indication of the ability of such group of compounds to overcome resistance that is originated in non-mutational grounds. However, the ability overcome the resistant T315I-BCR-ABL mutant, as shown in the dose-dependent manner of KÖ (circles), might be indicative for a non-ATP competitive mechanism of action.

Jurkat = assay: XTT cell viability, Jurkat; format: cell-based, human; conditions: increasing concentration up to 10 μM
Experimental: • 1. Ba/F3 cells were obtained from the German Collection of Microorganisms and Cell Cultures (DSMZ, Braunschweig, Germany) and maintained in RPMI 1640 medium supplemented with 10% fetal calf serum (Invitrogen) containing 10 ng/ml of interleukin-3 (Cell Concepts, Umkirch, Germany). Ecotropic Phoenix cells and Rat-1 cells were cultured in Dulbecco's modified Eagle's medium supplemented with 10% fetal calf serum. GNF-2 (Sigma-Adrich, Steinheim, Germany) was dissolved in dimethyl sulfoxide and added at a final concentration of […]. Cell growth was assessed by dye exclusion using Trypan blue. Proliferation was assessed using the XTT proliferation kit (Roche, Mannheim, Germany), according to the manufacturer's instructions. • 2. Ba/F3: IL-3 dependent lymphatic murine pro B cell line. Ba/F3 cells expressing either p185-BCR-ABL1 (p185-BCR-ABL-Ba/F3) or p210-BCR-ABL (p210-BCR-ABL-Ba/F3). p185-BCR-ABL1 (activated kinases substitute for the IL-3 signaling and therefore render the cells IL3 independent. Ba/F3 cells expressing either p185-BCR-ABL (p185-Ba/F3) or p210-BCR-ABL (p210-Ba/F3). Ba/F3 cells obtained from the German Collection of Microorganisms and Cell Cultures (DSMZ, Braunschweig, Germany). • 3. Mutant transduced Ba/F3 cells (T315I-p185-BCR-ABL1 or T315I-p210-BCR-ABL1): Ba/F3 cells expressing either the mutated forms T315I-p185-BCR-ABL1 or T315I-p210-BCR-ABL1. • 4. WT-Sup-B15: A Ph+ ALL cell line harboring the p185-BCR-ABL. Sup-B15: established from the bone marrow of a child with acute lymphoblastic leukemia (B cell precursor ALL) in second relapse in 1984; described in the literature to carry the ALL-variant (m-BCR) of the BCR-ABL1 fusion gene (e1-a2) correct, because it results in the p185-BCR-ABL version. • 5. […]
FIG. 2: Effect of Compound 16 on leukemia cell lines (Jurkat, Sup-B15 and BV173). Cell viablility (CV) was determined following incubation of the 1 m cells/ml of each cell line with increasing concentration of the Compound 16 [empty vehicle (0.0 μM+IL3), 2.5, 5.0 and 10.0 μM]. CV was measured by the XTT method. […]

[2] = tested on: p185-Ba/F3 (WT-Ba/F3-p185-BCR-ABL); assay: Proliferation by trypan blue exclusion, p185-Ba/F3; format: cell-based, murine; conditions: p185-Ba/F3, 1.0, 2.0 and 5.0 μM
Experimental: as §4, §5

[3] = tested on: Ba/F3 cells expressing p185-BCR-ABL; assay: XTT cell viability / proliferation, Ba/F3 expressing p185-BCR-ABL; format: cell-based, murine
Experimental: as §1, §2, §3

[4] = 1 μM, within the first 24 hours

## COc1ccc(C(=O)N2CCN(c3cc(Nc4ccc(OC(F)(F)F)cc4)ncn3)CC2)cc1OC [Compound 16]
[1]; 1 μM, 48 hr
  RF (T315I-p185 versus p185-Ba/F3): 1.07
[1]; [4]
  cells inhibited: not affected
[1]; 2 μM, T=48 hr
  resistance conferred by T315I mutant versus p185-Ba/F3: 1.84 fold
  viable cells: 50.71%
[1]; 10 μM
  time to complete inhibition: ~96 h
[1]; 5 and 10 μM
  cell proliferation affected: ~80%
WT-Ba/F3
  effect on proliferation (in words): without affecting the proliferation
KÖ (Ph+T315I-BCR-ABL)
  response (in words): inhibited with variable degrees
Jurkat
  antiproliferative response (in words): highly insensitive; also recorded: irresponsive
[2]
  effect on proliferation (in words): inhibits the proliferation
[3]; [4]
  cells inhibited: 35%
[3]; 2 μM, T=48 hr
  viable cells: 27.59%
[3]; 5 μM
  cell proliferation affected: ~90%
[3]; 5 μM, WT-p185- and T315I-p185-BCR-ABL Ba/F3
  time of maximum inhibition post application: 60 h
